Results reported in patent publication US5952501A, “Certain tricyclic substituted diazabicylo[3.2.1] octane derivatives” (priority 1995, dated 1999).
Where two headings read alike, the source gives them in different places.

Experiments:
stereotypy:hyperactivity = stereotypy:hyperactivity ED50 ratio (typical versus atypical neuroleptic profile); format: in vivo, male Sprague-Dawley rats; details: for neuroleptic profile: in words, stereotypy versus hyperactivity models; for Ratio: stereotypy:hyperactivity ED50 ratio, greater than ten considered clozapine like atypical
Description: The ratios of the ED50 's determined in the assay systems described above are predictive of typical versus atypical profiles for potential neuroleptic candidates.
A compound encompassed within the disclosure of French patent application No. 71.27825 was synthesized and evaluated using the assays described above. This prior art compound is designated Compound A for purposes of comparison and has the formula: [drawing 12]

[1] = cited from earlier work
[2] = system: apomorphine-induced stereotypy; experiment: Antagonism of Apomorphine-Induced Stereotypy; details: Rattus norvegicus, sc, 1 h, read-out: ED50 Stereotypy
[3] = system: amphetamine-induced hyperactivity; details: Rattus norvegicus, sc, 1 h, read-out: ED50 Hyperactivity

| Structure (SMILES) | neuroleptic profile (stereotypy:hyperactivity) | Ratio (stereotypy:hyperactivity) | incidence of extrapyramidal side effects ([1]; in words, than classical neuroleptics, background) | ED50 [2] [mg/kg] | ED50 [3] [mg/kg] | incidence of extrapyramidal side effects ([1]; in vivo) |
| --- | --- | --- | --- | --- | --- | --- |
| CN1CCN(C2=Nc3cc(Cl)ccc3Nc3ccccc32)CC1 [Clozapine] | clozapine-like atypical antipsychotic profiles | 18 | lesser incidence of extrapyramidal side effects than classical neuroleptics | 26.9 | 1.49 | – |
| CN1C2CCC1CN(C1Cc3cc(Cl)ccc3Oc3ccccc31)C2.O=C(O)/C=C\C(=O)O (stereo not shown) [Compound 1, 3-(2-Chloro-10,11-dihydro-dibenzo[b,f]oxepin-10-yl)-8-methyl-3,8-diazabicyclo(3.2.1)octane monomaleate] | – | > 48 | – | > 40 | 0.84 | – |
| Cc1ccc2c(c1)CC(N1CC3CCC(C1)N3C)c1ccccc1O2.O=C(O)/C=C\C(=O)O (stereo not shown) [Compound 2, 3-(2-Methyl-10,11-dihydro-dibenzo[b,f]oxepin-10-yl)-8-methyl-3,8-diazabicyclo(3.2.1)octane monomaleate] | – | 31 | – | 12.7 | 0.41 | – |
| CN1C2CCC1CN(C1Cc3cc(Br)ccc3Oc3ccccc31)C2.O=C(O)/C=C\C(=O)O (stereo not shown) [Compound 3, 3-(2-Bromo-10,11-dihydro-dibenzo[b,f]oxepin-10-yl)-8-methyl-3,8-diazabicyclo(3.2.1)octane monomaleate] | – | > 10 | – | > 22 | 2.15 | – |
| O=C(CCCN1CCC(O)(c2ccc(Cl)cc2)CC1)c1ccc(F)cc1 [Haloperidol] | – | 0.94 | – | 0.036 | 0.038 | – |
| CN1C2CCC1CN(C1Cc3ccccc3Oc3ccc(Cl)cc31)C2 (stereo not shown) [Prior Art Cpd A] | typical neuroleptic profile which is comparable to conventional neuroleptic agents | 3.1 | – | 0.69 | 0.22 | – |
| CN1CCN([C@@H]2Cc3ccccc3Sc3ccc(Cl)cc32)CC1 [R-Octoclothepin] | – | 4.4 | – | 0.18 | 0.8 | – |
| CCN1CCC[C@H]1CNC(=O)c1c(O)c(Cl)cc(Cl)c1OC [Raclopride] | – | 0.92 | – | 0.044 | 0.048 | – |
| CCN1CCCC1CNC(=O)c1cc(S(N)(=O)=O)ccc1OC (stereo not shown) [sulpiride] | – | – | – | – | – | lesser incidence of extrapyramidal side effects than classical neuroleptics |
